*1 amine or outer side, *2 acyl side, *3 side chain or, on linkers, in order; H or OH if unused. Where a SMILES comes first, the peptide text is derived from it. Side-chain parts run from the residue outwards. [ ]: non-standard residue; d: D form. The star is where a group is joined. Ethylenediamine = C(CN[*:2])N[*:1]; Hyp = O=C(O)[C@@H]1C[C@@H](O)CN1; Phg = N[C@H](C(=O)O)c1ccccc1; CO = O=C([*:1])[*:2]; Bn = c1ccc(C*)cc1
Key:
NT-3 cell line spheroids = assay: Cytotoxic activity on NT-3 cell line spheroids; format: cell-based, human; conditions: 2.56 μM, 18 days
Description: NT-3 well-differentiated pancreatic neuroendocrine (PanNET) cell line (32) is an in-vitro model for pancreatic tumours.
Said cells were cultured in RPMI 1640 Medium GlutaMAX™ with 10% FBS, 1% Penicillin/Streptomycin, 20ng/ml EGF (AF-100-15, Peprotech), 10 ng/ml FGF (100-18B, Peprotech).
3D spheroids were generated by seeding 2000 cells/well in a 96-well ULA plate (Corning). Four replicates for each condition were seeded.
The spheroid formation required 4 days before starting the treatment.
The treatment was repeated every 3 days by replacing 50% of the medium (to avoid spheroid removal) with new medium containing 2× desired drug concentration.
Spheroid morphology was monitored every day during the treatment and pictures were taken on day 0, 4, 7, 11, 14, 18. Day 0 corresponds to the first day of treatment. Pictures were taken from the same well every time point.

SSTR2 [1] = molecular target: T1, SSTR2 (Homo sapiens, UniProt P30874); assay: SSTR2 phosphorylation in HEK293 transfected cells (phosphosite-specific antibodies); format: cell-based; parameters: expressed in transfected cells; conditions: 10 or 1 μM, 10 min at 37° C.
T1 sequence (P30874 whole entry): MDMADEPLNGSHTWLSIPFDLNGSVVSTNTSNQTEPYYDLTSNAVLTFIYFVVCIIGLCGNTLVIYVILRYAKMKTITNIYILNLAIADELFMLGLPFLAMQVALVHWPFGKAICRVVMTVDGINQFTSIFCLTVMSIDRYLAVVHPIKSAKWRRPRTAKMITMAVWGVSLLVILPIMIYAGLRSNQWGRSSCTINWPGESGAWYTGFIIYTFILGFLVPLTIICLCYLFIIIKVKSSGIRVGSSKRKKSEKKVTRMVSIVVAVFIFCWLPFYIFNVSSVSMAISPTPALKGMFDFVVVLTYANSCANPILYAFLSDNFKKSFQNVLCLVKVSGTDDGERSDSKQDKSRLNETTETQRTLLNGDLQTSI
Description: (A) Schematic representation of the human SSTR2 receptor indicating all potential phosphate acceptor sites within the carboxyl-terminal tail. Epitopes of the phosphosite-specific antibodies are marked (-P). […] The levels of phosphorylated SSTR2 receptor were then determined using the phosphosite-specific anti-pS341/pS343, pT353/T354, pT356/T359 antibodies. […] Blots shown are representative of three independent experiments. The positions of molecular mass markers are indicated on the left (in kDa).

SSTR2-tGFP = SSTR2-tGFP (Homo sapiens, UniProt P30874); assay: Internalization of SSTR2 in U2OS transfected cells; format: cell-based; parameters: expressed in transfected cells; host or cells: U2OS
Sequence of SSTR2-tGFP (P30874 whole entry): as above
From the text: (§1) HEK293 cells transfected with human SSTRs, and U20S cells transfected with human GFP-tagged receptors (SSTR2-tGFP, SSTR3-tGFP, SSTR5-tGFP).

SSTR3-tGFP = SSTR3-tGFP (Homo sapiens, UniProt P32745); assay: Internalization of SSTR3 in U2OS transfected cells; format: cell-based; parameters: expressed in transfected cells; host or cells: U2OS
Sequence of SSTR3-tGFP (P32745 whole entry): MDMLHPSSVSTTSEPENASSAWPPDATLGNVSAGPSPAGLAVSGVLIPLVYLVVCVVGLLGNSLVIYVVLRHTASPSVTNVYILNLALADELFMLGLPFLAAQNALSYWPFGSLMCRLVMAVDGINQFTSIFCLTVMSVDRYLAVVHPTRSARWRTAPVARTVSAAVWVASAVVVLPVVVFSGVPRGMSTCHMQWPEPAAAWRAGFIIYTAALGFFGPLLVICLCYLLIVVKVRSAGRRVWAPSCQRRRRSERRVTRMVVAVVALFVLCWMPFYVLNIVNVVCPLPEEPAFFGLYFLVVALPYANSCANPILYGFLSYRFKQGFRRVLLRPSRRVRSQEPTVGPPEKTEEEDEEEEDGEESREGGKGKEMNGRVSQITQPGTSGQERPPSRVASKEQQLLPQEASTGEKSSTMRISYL
From the text: as §1

opioid receptors = assay: single dose binding assays on opioid receptors; conditions: single dose 10^−5 M
[2] = system: NFPAs in MENX (homozygous mutant) rats; conditions: female and male rats; cited from earlier work
[3] = system: Clinically Non-Functioning Pituitary Adenoma; conditions: Pasireotide LAR, NFPA patients; cited from earlier work
SSTR3 [4] = molecular target: T2, SSTR3 (Homo sapiens, UniProt P32745); assay: SSTR3 phosphorylation in HEK293 transfected cells (phosphosite-specific antibodies); format: cell-based; parameters: expressed in transfected cells; conditions: 10^−12 to 10^−5 M, 10 min at 37° C.
T2 sequence (P32745 whole entry): as above
Description: The levels of phosphorylated SST3 receptor were then determined using the phosphosite-specific anti-pS337/pT341 or anti-pT348.
(§2) Finally, the SSTR5 pT333 phosphosite was only partially affected by all tested compounds, with Pasireotide showing the most pronounced effect (FIG. 9B, C).

SSTR5 [5] = molecular target: T3, SSTR5 (Homo sapiens, UniProt P35346); assay: SSTR5 phosphorylation in HEK293 transfected cells (anti-pT333); format: cell-based; parameters: expressed in transfected cells; conditions: 10 min at 37° C.
T3 sequence (P35346 whole entry): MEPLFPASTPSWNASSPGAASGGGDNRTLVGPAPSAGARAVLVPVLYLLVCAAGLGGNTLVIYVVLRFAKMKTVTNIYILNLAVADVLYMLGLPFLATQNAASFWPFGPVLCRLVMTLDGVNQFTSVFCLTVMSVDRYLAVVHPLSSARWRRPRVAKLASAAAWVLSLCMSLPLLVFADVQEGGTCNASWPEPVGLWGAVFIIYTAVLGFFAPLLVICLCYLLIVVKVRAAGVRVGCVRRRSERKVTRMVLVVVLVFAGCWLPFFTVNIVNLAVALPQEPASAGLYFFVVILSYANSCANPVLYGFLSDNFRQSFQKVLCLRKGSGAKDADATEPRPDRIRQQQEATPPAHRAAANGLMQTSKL
From the text: FIG. 9—Agonist-selective SSTR5 phosphorylation in HEK293 transfected cells. (A) Schematic representation of the human SSTR5 receptor indicating all potential phosphate acceptor site within the carboxyl-terminal tail. Epitope of the phosphosite-specific antibodies are marked (-P) . . . […] (C) Blots were subsequently stripped and reprobed with anti-HA antibody to confirm equal loading of the gels. Blots shown are representative of three independent experiments. The positions of molecular mass markers are indicated on the left (in kDa).
as §2

SSTR5-tGFP = SSTR5-tGFP (Homo sapiens, UniProt P35346); assay: Internalization of SSTR5 in U2OS transfected cells; format: cell-based; parameters: expressed in transfected cells; host or cells: U2OS
Sequence of SSTR5-tGFP (P35346 whole entry): as above
From the text: as §1

SSTR3 [6] = molecular target: T2, SSTR3; assay: GIRK-based fluorescence membrane potential assay, HEK293-GIRK2-GFP-HA-hSST3
From the text: The concentrations used are indicated. […] Data points represent mean±S.E.M.
(§3) Therefore, G protein-signaling mediated by SSTR agonists was studied using a GIRK-based fluorescence membrane potential assay both in HEK293 cells transfected with hSSTR3, and in AtT20 wild-type as well as hSSTR3-transfected cells.

SSTR5 [7] = molecular target: T3, SSTR5
From the text: as §3

SSTR2 [8] = molecular target: T1, SSTR2; assay: cell-based; parameters: expressed in transfected cells; host or cells: HEK293 co-expressing GIRK2-GFP
From the text: as §3

[9] = molecular target: wild-type hSSTR2 stably expressed in HEK293 cells (human) (UniProt P30874)
[10] = molecular target: wild-type hSSTR3 stably expressed in HEK293 cells (human) (UniProt P32745)
[11] = molecular target: wild-type hSSTR5 stably expressed in HEK293 cells (human) (UniProt P35346)

| Compound activity (EC50 nM), GIRK membrane potential assay [9] | Compound | spheroid morphology at the highest concentration (NT-3 cell line spheroids) | phosphorylation of SSTR2 (pS341/pS343, pT353/T354, pT356/T359) (SSTR2 [1]) | Mean of internalized fluorescence, SSTR2 (SSTR2-tGFP; 1 μM) | Mean of internalized fluorescence, SSTR2 (SSTR2-tGFP; 10 μM) | Mean of internalized fluorescence, SSTR3 (SSTR3-tGFP; 1 μM) | Mean of internalized fluorescence, SSTR3 (SSTR3-tGFP; 10 μM) | other results |
| --- | --- | --- | --- | --- | --- | --- | --- | --- |
| – | C[C@@H](O)[C@@H]1NC(=O)[C@H](CCCCN)NC(=O)[C@@H](Cc2c[nH]c3ccccc23)NC(=O)[C@H](Cc2ccccc2)NC(=O)[C@@H](NC(=O)[C@H](N)Cc2ccccc2)CSSC[C@@H](C(=O)N[C@H](CO)[C@@H](C)O)NC1=O [Octreotide] | still maintain their morphology | full phosphorylation of SSTR2 | 74.1 AU | 81.0 AU | 43.4 AU | 55.2 AU | rank as SSTR2-tGFP internalization inducer (SSTR2-tGFP): most potent internalization inducer |
| – | NCCCC[C@@H]1NC(=O)[C@@H](Cc2c[nH]c3ccccc23)NC(=O)[C@H](c2ccccc2)NC(=O)[C@@H]2C[C@@H](OC(=O)NCCN)CN2C(=O)[C@H](Cc2ccccc2)NC(=O)[C@H](Cc2ccc(OCc3ccccc3)cc2)NC1=O [Pasireotide, reference compound] (cyclo([Hyp]([CO-Ethylenediamine])[Phg][dW]KY(Bn)F)) | still maintain their morphology | selective phosphorylation of S341/S343 | 49.2 AU | 50.5 AU | 41.6 AU | 46.3 AU | replacement of agonists (opioid receptors): fully replace agonists; antitumor activity in the MENX model (published report) [2]: higher antitumor activity than Octreotide; patients reaching a tumor size reduction at least 20% [3]: 16.7%; phosphorylation of SSTR3 (pS337/pT341, pT348) (SSTR3 [4]): weak effect; phosphorylation of SSTR5 (pT333) (SSTR5 [5]): more potent than ITF2984 and octreotide; Mean of internalized fluorescence, SSTR5 (SSTR5-tGFP; 1 μM): 40.5 AU; Mean of internalized fluorescence, SSTR5 (SSTR5-tGFP; 10 μM): 43.9 AU; EC50 (SSTR3 [6]): 63 ± 7.5 nM; EC50 (SSTR5 [7]): 16.5 ± 2.5 nM; EC50 (SSTR2 [8]): 60 ± 16.3 nM |
| 4 nM | Octreotide (peptide) | – | – | – | – | – | – | – |
| 60 nM | Pasireotide (peptide) | – | – | – | – | – | – | Compound activity (EC50 nM), GIRK membrane potential assay [10]: 63 nM; Compound activity (EC50 nM), GIRK membrane potential assay [11]: 16.5 nM |

— patent US20250057913A1, “USE OF SOMATOSTATIN AGONIST IN THE TREATMENT OF SSTR3 EXPRESSING TUMORS” (ITALFARMACO SPA, priority 2021, published 2025)
